The values that follow come from US9862726B2, “Opioid receptor modulating oxabicyclo[2.2.2]octane morphinans” (PURDUE PHARMA L.P., priority 2013, dated 2018).

In experiment [1] the target is T1, κ-opioid receptor (Homo sapiens (Human), UniProt P41145). The experiment in a line: κ-opioid receptor functional assay (U-2 OS cells). The class given is biochemical. The note with it: for Emax: U-2 OS cells, relative to U69,593. The method, then:
(§1) Functional [^35S]GTPγS binding assays were conducted as follows. κ opioid receptor membrane solution was prepared by sequentially adding final concentrations of 0.026 μg/μl κ membrane protein (in-house), 10 μg/mL saponin, 3 μM GDP and 0.20 nM [^35S]GTPγS to binding buffer (100 mM NaCl, 10 mM MgCl2, 20 mM HEPES, pH 7.4) on ice. The prepared membrane solution (190 μl/well) was transferred to 96-shallow well polypropylene plates containing 10 μl of 20× concentrated stock solutions of agonist prepared in DMSO. Plates were incubated for 30 min at a temperature of about 25° C. with shaking. Reactions were terminated by rapid filtration onto 96-well Unifilter GF/B filter plates (Perkin Elmer, Shelton, Conn.) using a 96-well tissue harvester (Packard) and followed by three filtration washes with 200 μl ice-cold binding buffer (10 mM NaH2PO4, 10 mM Na2HPO4, pH 7.4). Filter plates were subsequently dried at 50° C. for 2-3 hours. Fifty μl/well scintillation cocktail (Perkin Elmer, Shelton, Conn.) was added and plates were counted in a Packard Top-Count for 1 min/well.
(§2) κ GTP EC50 is the concentration of a compound providing 50% of the maximal response for the compound at a κ receptor.
(§3) κ GTP Emax (%) is the maximal effect elicited by a compound relative to the effect elicited by U69,593.
The following TABLE 5 provides results on the activity response of certain Compounds of the Invention at the μ- and κ-opioid receptors determined as described above using U-2 OS cells.

Experiment [2] deals with T1, κ-opioid receptor. The experiment can be described thus: κ-opioid receptor [35S]GTPγS functional assay (HEK-293 cells). The class given is biochemical. The note with it: for Emax: HEK-293 cells, relative to U69,593. How it is done: as §1, §2, §3
(§4) In TABLE 4, activity response of certain Compounds of the Invention to the μ- and κ-opioid receptors was determined as described above for functional assays using HEK-293 cells.
(Binding of GTPγS marks nucleotide exchange on a G protein.)

Experiment [3] deals with T2, μ-opioid receptor (Homo sapiens (Human), UniProt P35372). The experiment can be described thus: μ-opioid receptor radioligand dose-displacement binding assay (HEK-293 cells). How it is done:
Radioligand dose-displacement binding assays for μ-opioid receptors used 0.3 nM [^3H]-diprenorphine (Perkin Elmer, Shelton, Conn.), with […] membrane protein/well in a final volume of 500 μl binding buffer (10 mM MgCl2, 1 mM EDTA, 5% DMSO, 50 mM HEPES, pH 7.4). Reactions were carried out in the absence or presence of increasing concentrations of unlabeled naloxone. All reactions were conducted in 96-deep well polypropylene plates for 2 hours at room temperature. Binding reactions were terminated by rapid filtration onto 96-well Unifilter GF/C filter plates (Perkin Elmer, Shelton, Conn.), presoaked in 0.5% polyethylenimine using a 96-well tissue harvester (Perkin Elmer, Shelton, Conn.) followed by performing three filtration washes with 500 μl of ice-cold binding buffer. Filter plates were subsequently dried at 50° C. for 2-3 hours. BetaScint scintillation cocktail (Perkin Elmer, Shelton, Conn.) was added (50 μl/well), and plates were counted using a Packard Top-Count for 1 min/well. The data were analyzed using the one-site competition curve fitting functions in GraphPad PRISM™ v. 3.0 or higher (San Diego, Calif.), or an in-house function for one-site competition curve-fitting.
(§5) In TABLE 3, binding affinity of certain Compounds of the Invention to the μ- and κ-opioid receptors was determined as described above using HEK-293 cells.

The target of experiment [4] is recombinant human kappa opioid receptor (κ) (Homo sapiens (Human), UniProt P41145). The experiment can be described thus: κ-opioid receptor radioligand dose-displacement binding assay (HEK-293 cells). The method, then:
Membranes from HEK-293 cells, CHO cells or U-2 OS cells expressing the recombinant human kappa opioid receptor (κ) were prepared by lysing cells in ice cold hypotonic buffer (2.5 mM MgCl2, 50 mM HEPES, pH 7.4) (10 mL/10 cm dish) followed by homogenization with a tissue grinder/Teflon pestle. Membranes from a cell line naturally expressing kappa opioid receptor can also be used. Membranes were collected by centrifugation at 30,000×g for 15 min at 4° C. and pellets were resuspended in hypotonic buffer to a final concentration of 1-3 mg/mL. Protein concentrations were determined using the BioRad protein assay reagent with bovine serum albumen as standard. Aliquots of κ receptor membranes were stored at −80° C.
Radioligand dose displacement assays used 0.4 nM [^3H]-U69,593 (GE Healthcare, Piscataway, N.J.; 40 Ci/mmole) with 15 μg membrane protein (recombinant κ opioid receptor expressed in HEK 293 cells; in-house prep) in a final volume of 200 μl binding buffer (5% DMSO, 50 mM Trizma base, pH 7.4). Non-specific binding was determined in the presence of 10 μM unlabeled naloxone or U69,593. All reactions were performed in 96-well polypropylene plates for 1 hour at a temperature of about 25° C. Binding reactions were terminated by rapid filtration onto 96-well Unifilter GF/C filter plates (Perkin Elmer, Shelton, Conn.) presoaked in 0.5% polyethylenimine (Sigma). Harvesting was performed using a 96-well tissue harvester (Perkin Elmer, Shelton, Conn.) followed by five filtration washes with 200 μl ice-cold binding buffer. Filter plates were subsequently dried at 50° C. for 1-2 hours. Fifty μl/well scintillation cocktail (Perkin Elmer, Shelton, Conn.) was added and plates were counted in a Packard Top-Count for 1 min/well.
as §5

Experiment [5] has as its target T2, μ-opioid receptor. The experiment can be described thus: μ-opioid receptor [35S]GTPγS functional assay (HEK-293 cells). The class given is biochemical. The note with it: for Emax: HEK-293 cells, relative to DAMGO. How it is done: (§6) [^35S]GTPγS functional assays were conducted using freshly thawed μ-receptor membranes prepared in-house from a cell line expressing recombinant μ opioid receptor in a HEK-293, CHO or U-2 OS cell background, or purchased from a commercial source (Perkin Elmer, Shelton, Conn.; or DiscovRx, Fremont, Calif.). Assay reactions were prepared by sequentially adding the following reagents to binding buffer (100 mM NaCl, 10 mM MgCl2, 20 mM HEPES, pH 7.4) on ice (final concentrations indicated): membrane protein (0.026 mg/mL), saponin ([…]), GDP ([…]) and [^35S]GTPγS (0.20 nM; Perkin Elmer, Shelton, Conn.). The prepared membrane solution (190 μl/well) was transferred to 96-shallow well polypropylene plates containing 10 μl of 20× concentrated stock solutions of the agonist [D-Ala^2, N-methyl-Phe^4 Gly-ol^5]-enkephalin (DAMGO) prepared in dimethyl sulfoxide (DMSO). Plates were incubated for 30 min at about 25° C. with shaking. Reactions were terminated by rapid filtration onto 96-well Unifilter GF/B filter plates (Perkin Elmer, Shelton, Conn.) using a 96-well tissue harvester (Perkin Elmer, Shelton, Conn.) followed by three filtration washes with 200 μl of ice-cold wash buffer (10 mM NaH2PO4, 10 mM Na2HPO4, pH 7.4). Filter plates were subsequently dried at 50° C. for 2-3 hours. BetaScint scintillation cocktail (Perkin Elmer, Shelton, Conn.) was added (50 μl/well) and plates were counted using a Packard Top-Count for 1 min/well. Data were analyzed using the sigmoidal dose-response curve fitting functions in GraphPad PRISM v. 3.0, or an in-house function for non-linear, sigmoidal dose-response curve-fitting. [^35S]GTPγS functional assays can also be conducted using freshly thawed μ-receptor membranes prepared from a cell line expressing recombinant μ opioid receptor in a CHO-K1 cell background.
(§7) μ GTP EC50 is the concentration of a compound providing 50% of the maximal response for the compound at a μ-opioid receptor.
(§8) μ GTP Emax (%) is the maximal effect elicited by a compound relative to the effect elicited by DAMGO, a standard μ agonist.
as §4

In experiment [6] the target is T2, μ-opioid receptor. The experiment can be described thus: μ-opioid receptor functional assay (U-2 OS cells). The class given is biochemical. The note with it: for Emax: U-2 OS cells, relative to DAMGO. The method, then:
as §6, §7, §8

`COc1ccc2c(c1)[C@]13CCN(CC4CC4)[C@H](C2)[C@]12CC[C@](N)(C3)C(=O)O2` [Compound 3, (4bR,6S,8aS,9R)-6-amino-11-(cyclopropylmethyl)-3-methoxy-5,6,7,8,9,10-hexahydro-9,4b-(epiminoethano)-8a,6-(epoxymethano)phenanthren-15-one]: the 50% effective concentration (EC50) is 807 ± 83.2 nM at κ-opioid receptor [1], 3010 ± 274 nM at κ-opioid receptor [2] and 2980 ± 706 nM at μ-opioid receptor [5]. The Emax at κ-opioid receptor [1] amounted to 99 ± 1.73%; on κ-opioid receptor [2], 79.7 ± 10.3%; at μ-opioid receptor [5] it was 48.3 ± 6.01%. In addition, the figures for the inhibition constant (Ki) (on μ-opioid receptor [3]; in experiment [4]) were 1330 ± 313 nM and 248 ± 54.6 nM, respectively.

Take `COc1ccc2c(c1)[C@]13CCN(CC4CC4)[C@H](C2)[C@]12CC[C@](O)(C3)C(=O)O2` [Compound 4, (4bR,6S,8aS,9R)-11-(cyclopropylmethyl)-6-hydroxy-3-methoxy-5,6,7,8,9,10-hexahydro-9,4b-(epiminoethano)-8a,6-(epoxymethano)phenanthren-15-one]: the EC50 was 1110 ± 159 nM at κ-opioid receptor [1], 2850 ± 1190 nM at κ-opioid receptor [2] and greater than 20000 nM at μ-opioid receptor [5]. Moreover, the maximum response (Emax) on κ-opioid receptor [1] came out at 105 ± 7.02%; on κ-opioid receptor [2], 92 ± 6.03%; on μ-opioid receptor [5], 1%. The Ki was 6350 ± 1020 nM at μ-opioid receptor [3] and 251 ± 62.9 nM in experiment [4].

In the case of `O=C1O[C@@]23CC[C@]1(O)C[C@@]21CCN(CC2CC2)[C@@H]3Cc2ccc(O)cc21` [Compound 9, (4bR,6S,8aS,9R)-11-(cyclopropylmethyl)-3,6-dihydroxy-5,6,7,8,9,10-hexahydro-9,4b-(epiminoethano)-8a,6-(epoxymethano)phenanthren-15-one], the EC50 on κ-opioid receptor [1] is 5.23 ± 0.38 nM; at κ-opioid receptor [2], 54.7 ± 7.26 nM; on μ-opioid receptor [6], 9.17 ± 1.18 nM; on μ-opioid receptor [5] it was greater than 20000 nM. The maximal response (Emax) turned out to be 91.7 ± 4.84% on κ-opioid receptor [1], 54 ± 3.89% on κ-opioid receptor [2], 63.7 ± 5.21% on μ-opioid receptor [6] and 0.5 ± 0.5% at μ-opioid receptor [5]. Besides, the results for the inhibitory constant (Ki) (at μ-opioid receptor [3]; in experiment [4]) were 10.1 ± 2.46 nM and 0.95 ± 0.29 nM, respectively.

On to `COc1ccc2c(c1)[C@]13CCN(CC4CC4)[C@H](C2)[C@]12CC[C@@](NC(=O)C1CC1)(CO2)C3` [Compound 22, N-((4bR,6S,8aS,9R)-11-(cyclopropylmethyl)-3-methoxy-5,6,7,8,9,10-hexahydro-9,4b-(epiminoethano)-8a,6-(epoxymethano)phenanthren-6-yl)cyclopropanecarboxamide], for which the half-maximal effective concentration (EC50) on κ-opioid receptor [1] was determined as 0.9 ± 0.096 nM; on μ-opioid receptor [6] it was 71.2 ± 10.8 nM; on μ-opioid receptor [5], 939 ± 394 nM. The values for the Emax on κ-opioid receptor [1], on μ-opioid receptor [6] and at μ-opioid receptor [5] were 111 ± 2.6%, 90.7 ± 2.73% and 18 ± 0.41%, respectively. Moreover, the inhibition constant Ki on μ-opioid receptor [3] came out at 126 ± 20.7 nM; in experiment [4] it was 0.3 ± 0.055 nM.

For `COc1ccc2c(c1)[C@]13CCN(CC4CC4)[C@H](C2)[C@]12CC[C@@](NC(=O)CC(F)(F)F)(CO2)C3` [Compound 23, N-((4bR,6S,8aS,9R)-11-(cyclopropylmethyl)-3-methoxy-5,6,7,8,9,10-hexahydro-9,4b-(epiminoethano)-8a,6-(epoxymethano)phenanthren-6-yl)-3,3,3-trifluoropropanamide], the 50% effective concentration (EC50) was 1.79 ± 0.25 nM at κ-opioid receptor [1], 21.6 ± 1.38 nM at μ-opioid receptor [6] and 419 ± 108 nM on μ-opioid receptor [5]. In addition, the maximal effect (Emax) was 115 ± 3.06% on κ-opioid receptor [1], 98.7 ± 1.45% on μ-opioid receptor [6] and 39.5 ± 2.1% at μ-opioid receptor [5]. Also, the inhibitory constant (Ki) was 136 ± 35.7 nM at μ-opioid receptor [3] and 0.66 ± 0.22 nM in experiment [4].

`COc1ccc2c(c1)[C@]13CCN(CC4CC4)[C@H](C2)[C@]12CC[C@@](NS(=O)(=O)c1ccc(Cl)cc1)(CO2)C3` [Compound 24, 4-Chloro-N-((4bR,6S,8aS,9R)-11-(cyclopropylmethyl)-3-methoxy-5,6,7,8,9,10-hexahydro-9,4b-(epiminoethano)-8a,6-(epoxymethano)phenanthren-6-yl)-benzenesulfonamide]: the values for the EC50 at κ-opioid receptor [1], at μ-opioid receptor [6] and at μ-opioid receptor [5] were 0.11 ± 0.011 nM, 0.25 ± 0.014 nM and greater than 20000 nM, respectively. Moreover, the Emax on κ-opioid receptor [1] stood at 114 ± 2.73%; on μ-opioid receptor [6] it was 71.7 ± 0.67%; on μ-opioid receptor [5], 6%. Also, the inhibition constant (Ki) at μ-opioid receptor [3] was 0.29 ± 0.043 nM; in experiment [4], 0.057 ± 0.01 nM.

As for `CC(C)(C)C(=O)N[C@]12CC[C@@]3(OC1)[C@H]1Cc4ccc(O)cc4[C@@]3(CCN1CC1CC1)C2` [Compound 26, N-((4bR,6S,8aS,9R)-11-(cyclopropylmethyl)-3-hydroxy-5,6,7,8,9,10-hexahydro-9,4b-(epiminoethano)-8a,6-(epoxymethano)phenanthren-6-yl)pivalamide], the EC50 at κ-opioid receptor [1] was 0.031 nM; at μ-opioid receptor [6], 0.28 ± 0.01 nM; on μ-opioid receptor [5] it was greater than 20000 nM. The figures for the Emax on κ-opioid receptor [1], at μ-opioid receptor [6] and at μ-opioid receptor [5] were 91.7 ± 2.73%, 89 ± 3.06% and 4 ± 1.53%, respectively. Further, the Ki at μ-opioid receptor [3] was found to be 0.056 ± 0.01 nM; in experiment [4] it was 0.059 ± 0.01 nM.

Broadly, the EC50 is the concentration at which the effect is half-maximal. A low value points to an effect from little substance. As a reminder, the Emax is the maximal effect, on the per cent scale that the assay sets. In general, Ki refers to the dissociation constant of the complex between target and ligand, obtained from inhibition or displacement.
